Laboratory results as given in paper PMC9646673, “A Novel, Orally Bioavailable, Small-Molecule Inhibitor of PCSK9 With Significant Cholesterol-Lowering Properties In Vivo” (Journal of Lipid Research, 2022).
Several values for one entry are separate records, joined by “and”; a condition that tells them apart may be missing. Identical values can stand only once. Like-named read-outs stand apart in the source and are kept apart here.

Experiments:
[1] = Pharmacokinetic study, single dose PO/SC/IV; type: in vivo, female C57BL/6 mice; conditions: female, C57BL/6, mouse, plasma; for AUC(0-inf): read-out: AUC Infinity; for MRT inf: read-out: MRT Infinity
Experimental: Pharmacokinetic study protocols were reviewed and approved by the Institutional Animal Care and Use Committee of ChemPartner (Shanghai, China) under ethics A998HL0119. Female C57BL/6 mice aged 10–14 weeks (18–21 g) were purchased from Jihui Laboratory Animal Co. Ltd. (Shanghai, China) and were given ad libitum access to water and food throughout the in-life phase of the studies. […] At designated timepoints (t = 0.083, 0.25, 0.5, 1, 2, 4, 8, and 24 h), the animals were manually restrained, and 110 μl of blood per timepoint was collected into precooled EDTA-K2 tubes via the facial vein. […] Bioavailability was determined by comparing the plasma exposure levels (AUClast) of NYX-PCSK9i when given orally with plasma exposure levels obtained via the IV route.

[2] = molecular target: T1, PCSK9-D374Y (Homo sapiens, UniProt Q8NBP7, D374Y); test: ex vivo lymphocyte LDLR surface expression assay with recombinant PCSK9-D374Y; type: cell-based; conditions: 4 μM, relative to PCSK9 D374Y and vehicle
T1 construct: purchased CycLex (Nagano, Japan); host or cells: added to primary human lymphocytes (PBMCs from a human donor)
From the text: Ethics was granted by the Comité de Protection des Personnes Sud Méditerranée (ID: 2020-A00196-33). Studies using human samples abided by the Declaration of Helsinki principles.

[3] = tested on: APOE∗3-Leiden.CETP mice; test: Fecal bile acid and neutral sterol content, cholesterol balance
Experimental: In a subsequent efficacy study, mice were treated identically to the first study with the following modifications. Mice in group 1 received vehicle solution (5% DMSO, 5% Solutol HS15, and 90% saline) twice daily by oral gavage. […] The study ran for a total of 35 days with blood and tissue collection and analysis performed as described below.
Analyses of fecal neutral sterol and bile acid contents were performed by gas chromatographic analysis as previously detailed ([37], [38]). Per treatment group, two cages of four mice per cage were used, with feces collected twice per cage during the last week of the study. The net cholesterol uptake, or cholesterol balance, was defined as the dietary cholesterol intake (food intake measured weekly) minus the summed fecal output of neutral sterols and bile acids.

[4] = tested on: plasma PCSK9 protein levels; test: First efficacy study: plasma total PCSK9 (ELISA); type: in vivo, mouse; conditions: 50 mg/kg BID PO, day 28
From the text: (§1) Animal experiments were approved by the governmental central committee on animal experiments (AVD5010020172064) and TNO’s animal welfare body (TNO-471 and TNO-482). Female APOE∗3-Leiden.CETP transgenic mice (11–16 weeks of age) were bred at the animal facility of TNO-InnoSer (Leiden, The Netherlands). Female animals were used in this study as they are more responsive to dietary cholesterol and fat than males and therefore typically develop atherosclerosis more rapidly than male APOE∗3-Leiden and APOE∗3-Leiden.CETP mice on cholesterol-containing diets ([33], [34]). […] Body weight, food intake, and clinical signs of behavior were monitored throughout the studies. […]
Treatment times were around 8:00 am and 4:00 pm each day. Throughout the in-life phase of the study, body weight and food intake (per cage) were measured at regular predetermined intervals while blood samples were collected every 7 days. […] Throughout the study, plasma cholesterol, triglycerides, HDL-C, lipoprotein profiles, PCSK9 expression levels, aspartate transaminase levels (AST), and alanine transaminase levels (ALT) were measured as described below.
In both studies, blood samples were collected at weekly intervals via tail vein sampling after fasting the mice for 4 h. […] Total plasma cholesterol levels were determined using a Cholesterol CHOD-PAP kit according to the manufacturer’s instructions. […]

[5] = tested on: plasma PCSK9 protein levels; test: Second efficacy study: plasma total PCSK9 (ELISA); type: in vivo, mouse; conditions: 50 mg/kg BID PO, from day 7, sustained for the remaining 4 weeks
From the text: as §1
In both studies, blood samples were collected at weekly intervals via tail vein sampling after fasting the mice for 4 h. […] Total plasma cholesterol levels were determined using a Cholesterol CHOD-PAP kit according to the manufacturer’s instructions. Plasma HDL-C levels were determined by first precipitating apoB-containing lipids using PEG 6000/glycine and then utilizing the Cholesterol CHOD-PAP kit ([35]). Non-HDL-C levels were determined by subtracting HDL-C levels from total cholesterol levels ([32]). Group-pooled lipoprotein profiles were determined by FPLC analysis using an AKTApurifier 10 FPLC system (GE Healthcare, Chicago, IL). […]

[6] = tested on: APOE∗3-Leiden.CETP mice; test: First efficacy study (28 days): plasma lipids; type: in vivo, mouse
From the text: (§2) Animal experiments were approved by the governmental central committee on animal experiments (AVD5010020172064) and TNO’s animal welfare body (TNO-471 and TNO-482). Female APOE∗3-Leiden.CETP transgenic mice (11–16 weeks of age) were bred at the animal facility of TNO-InnoSer (Leiden, The Netherlands). Female animals were used in this study as they are more responsive to dietary cholesterol and fat than males and therefore typically develop atherosclerosis more rapidly than male APOE∗3-Leiden and APOE∗3-Leiden.CETP mice on cholesterol-containing diets ([33], [34]). Although measurements of atherosclerosis were not included as part of the present study, females were used with the prospect in mind that atherosclerosis studies will follow. The mice were housed under standard conditions that included 12 h light-dark cycles and access to a WTD and sterilized tap water ad libitum. Body weight, food intake, and clinical signs of behavior were monitored throughout the studies. […] Time t = 0 (weeks) was designated as the time at which mice were matched into groups after the 3-week run-in period in each efficacy study.
Treatment times were around 8:00 am and 4:00 pm each day. Throughout the in-life phase of the study, body weight and food intake (per cage) were measured at regular predetermined intervals while blood samples were collected every 7 days. The last gavage was administered on day 27. On day 28, the mice were sacrificed by CO2 asphyxiation, EDTA-plasma was obtained via heart puncture, and the liver was weighed and collected. Throughout the study, plasma cholesterol, triglycerides, HDL-C, lipoprotein profiles, PCSK9 expression levels, aspartate transaminase levels (AST), and alanine transaminase levels (ALT) were measured as described below.
(§3) In both studies, blood samples were collected at weekly intervals via tail vein sampling after fasting the mice for 4 h. Blood samples were centrifugated (4500 g at 4°C), and the plasma was collected for the following analyses. Total plasma cholesterol levels were determined using a Cholesterol CHOD-PAP kit according to the manufacturer’s instructions. Plasma HDL-C levels were determined by first precipitating apoB-containing lipids using PEG 6000/glycine and then utilizing the Cholesterol CHOD-PAP kit ([35]). Non-HDL-C levels were determined by subtracting HDL-C levels from total cholesterol levels ([32]). Group-pooled lipoprotein profiles were determined by FPLC analysis using an AKTApurifier 10 FPLC system (GE Healthcare, Chicago, IL). Plasma PCSK9 levels were determined using a Mouse PCSK9 Quantikine ELISA kit as per the manufacturer’s protocol. ALT and AST levels of group-pooled samples were measured using the Roche Reflotron Plus System (Mannheim, Germany).

[7] = tested on: APOE∗3-Leiden.CETP mice; test: Second efficacy study (35 days, with atorvastatin): plasma lipids; type: in vivo, mouse
From the text: as §2, §3

[8] = tested on: hepatic LDLR protein; test: Second efficacy study: hepatic LDLR protein (Western blotting); type: in vivo, mouse; conditions: day 35; NYX-PCSK9i 50 mg/kg BID PO, atorvastatin […]
[9] = 30 mg/kg BID PO, day 0 (baseline)
[10] = 50 mg/kg BID PO, day 0 (baseline)
[11] = 30 and 50 mg/kg BID PO, 28 days
[12] = day 0 (baseline), NYX-PCSK9i 50 mg/kg BID PO
[13] = day 14, NYX-PCSK9i 50 mg/kg BID PO
[14] = day 28, NYX-PCSK9i 50 mg/kg BID PO
[15] = day 35, NYX-PCSK9i 50 mg/kg BID PO

T1 sequence (Q8NBP7 153-692 D374Y): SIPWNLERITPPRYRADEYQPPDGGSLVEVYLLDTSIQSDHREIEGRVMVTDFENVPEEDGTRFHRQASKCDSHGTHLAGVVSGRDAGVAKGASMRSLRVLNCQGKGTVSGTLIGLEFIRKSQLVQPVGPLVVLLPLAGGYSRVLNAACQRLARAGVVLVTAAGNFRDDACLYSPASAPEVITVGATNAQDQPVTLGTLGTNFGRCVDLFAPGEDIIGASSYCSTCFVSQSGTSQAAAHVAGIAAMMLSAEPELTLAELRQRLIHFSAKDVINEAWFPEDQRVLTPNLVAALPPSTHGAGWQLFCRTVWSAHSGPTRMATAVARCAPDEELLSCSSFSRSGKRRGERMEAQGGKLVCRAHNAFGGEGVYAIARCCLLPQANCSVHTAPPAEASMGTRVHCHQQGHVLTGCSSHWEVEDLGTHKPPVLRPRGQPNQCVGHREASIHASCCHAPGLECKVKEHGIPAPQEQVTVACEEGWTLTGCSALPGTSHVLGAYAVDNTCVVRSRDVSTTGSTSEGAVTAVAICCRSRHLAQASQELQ
T1 sequence (Q8NBP7 31-152 partner limits assumed): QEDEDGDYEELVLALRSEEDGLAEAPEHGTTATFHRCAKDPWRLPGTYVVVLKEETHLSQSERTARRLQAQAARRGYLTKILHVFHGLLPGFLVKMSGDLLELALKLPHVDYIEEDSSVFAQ

## Cc1cn(-c2cc(CN3CCC[C@H](N)C3)cc(NC(=O)c3cc(-c4ccccc4)ccn3)c2)cn1 [NYX-PCSK9i]
[1]; iv, 5 mg/kg, 5 mg/kg IV
  AUC(0-t): 2010 ng·h/mL
[1]; po, 50 mg/kg, 50 mg/kg PO
  AUC(0-t): ~8100 ng·h/mL
[1]; sc, 50 mg/kg, 50 mg/kg SC
  AUC(0-t): 25500 ng·h/mL
[1]; 5 mg/kg IV
  clearance: 38.2 mL/min/kg
  half-life: 7.48 h
  AUC(0-inf): 2190 ng·h/mL
  MRT inf: 6.42 h
[1]; 5 mg/kg IV, read-out: Vss
  Vd: 14.7 L/kg
[1]; 50 mg/kg PO
  half-life: 6.29 h
  AUC(0-inf): 8700 ng·h/mL
  MRT inf: 7.07 h
[1]; 50 mg/kg SC
  half-life: 9.11 h
  AUC(0-inf): 30400 ng·h/mL
  MRT inf: 12.2 h
[1]; AUClast 50 mg/kg PO vs 5 mg/kg IV
  bioavailability: 40%
[2]
  LDLR expression levels on surface of human lymphocytes: large and significant increase in LDLR expression levels
[3]; data not shown
  share of fecal neutral sterols that was cholesterol: more than 95%
[3]; final week of 35-day study
  cholesterol balance (dietary cholesterol intake minus fecal bile acids and neutral sterols): negative
[4]
  maximal increase in plasma PCSK9 protein levels: 2 fold
[5]
  elevation of total plasma PCSK9 levels: approximately 2 fold
[6]; [9]
  Plasma HDL- cholesterol (mean ± SEM): 0.9 ± 0.2 mmol/L
  Plasma non-HDL- cholesterol (mean ± SEM): 14.7 ± 1.6 mmol/L
  Plasma triglycerides (mean ± SD): 5.7 ± 2.2 mmol/L
[6]; 30 mg/kg BID PO, day 7
  Plasma triglycerides (mean ± SD): 7.0 ± 2.0 mmol/L
[6]; 30 mg/kg BID PO, day 14
  Plasma HDL- cholesterol (mean ± SEM): 0.4 ± 0.1 mmol/L
  Plasma non-HDL- cholesterol (mean ± SEM): 13.1 ± 2.2 mmol/L
  Plasma triglycerides (mean ± SD): 8.9 ± 1.8 mmol/L
[6]; 30 mg/kg BID PO, day 21
  Plasma triglycerides (mean ± SD): 6.1 ± 1.5 mmol/L
[6]; 30 mg/kg BID PO, day 28
  Plasma HDL- cholesterol (mean ± SEM): 0.8 ± 0.2 mmol/L
  Plasma non-HDL- cholesterol (mean ± SEM): 10.5 ± 1.4 mmol/L
  Plasma triglycerides (mean ± SD): 5.7 ± 1.9 mmol/L
[6]; [10]
  Plasma HDL- cholesterol (mean ± SEM): 0.8 ± 0.1 mmol/L
  Plasma non-HDL- cholesterol (mean ± SEM): 14.6 ± 2.5 mmol/L
  Plasma triglycerides (mean ± SD): 6.1 ± 1.9 mmol/L
[6]; 50 mg/kg BID PO, day 7
  Plasma triglycerides (mean ± SD): 5.9 ± 2.0 mmol/L
[6]; 50 mg/kg BID PO, day 14
  Plasma HDL- cholesterol (mean ± SEM): 0.6 ± 0.2 mmol/L
  Plasma non-HDL- cholesterol (mean ± SEM): 9.8 ± 2.4 mmol/L
  Plasma triglycerides (mean ± SD): 5.2 ± 1.7 mmol/L
[6]; 50 mg/kg BID PO, day 21
  Plasma triglycerides (mean ± SD): 4.2 ± 1.3 mmol/L
[6]; 50 mg/kg BID PO, day 28
  Plasma HDL- cholesterol (mean ± SEM): 0.9 ± 0.2 mmol/L
  Plasma non-HDL- cholesterol (mean ± SEM): 6.8 ± 1.5 mmol/L
  Plasma triglycerides (mean ± SD): 4.1 ± 1.2 mmol/L
  reduction of total cholesterol in absolute terms: 10.1 mM and 390 mg/dl
[6]; [11]
  HDL-C levels: no consistent reduction in HDL-C levels
  Mean plasma triglyceride levels: essentially unchanged
[7]; [12]
  Plasma HDL-cholesterol: 0.9 ± 0.1 mmol/L
  Plasma non- HDL-cholesterol: 14.6 ± 2.5 mmol/L
  Plasma triglycerides (mean ± SD): 5.3 ± 1.4 mmol/L
[7]; day 7, NYX-PCSK9i 50 mg/kg BID PO
  Plasma triglycerides (mean ± SD): 8.9 ± 3.3 mmol/L
[7]; [13]
  Plasma HDL-cholesterol: 0.7 ± 0.4 mmol/L
  Plasma non- HDL-cholesterol: 12.7 ± 0.6 mmol/L
  Plasma triglycerides (mean ± SD): 8.6 ± 2.7 mmol/L
[7]; day 21, NYX-PCSK9i 50 mg/kg BID PO
  Plasma triglycerides (mean ± SD): 7.1 ± 1.6 mmol/L
[7]; [14]
  Plasma HDL-cholesterol: 0.8 ± 0.2 mmol/L
  Plasma non- HDL-cholesterol: 11.8 ± 2.8 mmol/L
  Plasma triglycerides (mean ± SD): 6.0 ± 1.7 mmol/L
[7]; [15]
  Plasma HDL-cholesterol: 0.7 ± 0.4 mmol/L
  Plasma non- HDL-cholesterol: 12.8 ± 2.8 mmol/L
  Plasma triglycerides (mean ± SD): 5.8 ± 1.7 mmol/L
[8]
  increase in hepatic LDLR protein expression: 45%
